Results as given in patent publication US20140193802A1, “IDENTIFICATION OF AN ALTERED THERAPEUTIC SUSCEPTIBILITY TO ANTI-HCMV COMPOUNDS AND OF A RESISTANCE AGAINST ANTI-HCMV COMPOUNDS” (priority 2012, published 2014).
Read-outs that look alike come from different tables or passages of the source.

Key:
Assay type in all cases: cell-based, human cytomegalovirus (HCMV)
RV-HG (wt-HCMV) = assay: HCMV fluorescence reduction assay (GFP-RA)
Experimental: (§1) HCMV Fluorescence Reduction Assay (GFP-RA)
(§2) The susceptibilities of recombinant HCMV laboratory strains expressing GFP were determined by a GFP-based fluorescence reduction assay. For standard assays, 1.5×10^4 NHDF cells/well were cultured in black 96-well plates (Greiner Bio-One, Germany) and infected with either HCMV-GFP (MOI, 0.1) or RV-HG (MOI, 0.2 to 0.5). After virus adsorption, the virus inoculum was replaced with 200 μl fresh medium. Thereafter, 100 μl medium containing the test compounds was added to wells of horizontal row G, followed by serial 3-fold dilutions up to row A. All drug concentrations were tested at least in duplicate. Wells of the horizontal row H served as the virus control. Plates were incubated at 37° C. for 7 days. The medium was replaced by 200 μl PBS, and GFP units (GFPU) were determined by a charge-coupled-device-camera-based fluorescence detector (FluoBox; Bayer Technology Services GmbH, Leverkusen, Germany), which captures 96 images simultaneously. Drug effects were calculated as a percentage of reduction in GFPU in the presence of each drug concentration compared to the GFPU determined in the absence of drug. EC50 and EC90 values (drug concentrations producing 50% and 90% reduction in GFPU) were calculated using nonlinear regression curve fit with a variable slope. GraphPad Prism 3.02 or 4.0 software (GraphPad Software Inc., La Jolla, Calif.) was used for all analyses.
(§3) The HCMV AD169-derived bacterial artificial chromosome (BAC) pHG served as the backbone for the construction of the mutant viruses. The markerless introduction of point mutations into pHG was done using a two-step recombination protocol according to the en passant method. Briefly, a recombination fragment containing the I-SceI-AphAI cassette from plasmid pEPKan-S was obtained by PCR using primers containing ˜60 bp of homology to the intended integration site in ORF UL56 of BAC pHG and ˜20 bp specific for pEPKan-S. This fragment was electroporated into Escherichia coli GS1783 that harbored the pHG BAC. […] After successful kanamycin selection, all non-HCMV sequences were removed by an intrabacterial ISceI digest and a subsequent second Red recombination, resulting in the scarless repair of the mutated UL56 gene in the background of BAC pHG. The integrity of the generated BACs was confirmed by restriction enzyme digestion and sequencing. To reconstitute virus mutants, the recombinant BACs were transfected into permissive MRC5 cells. At least two independent virus clones per mutation were generated and evaluated.

RV-HG UL56-C325Yrev = assay: GFP-RA, marker transfer revertant
Experimental: as §1, §2, §3

RV-HG UL56-C325Y = assay: GFP-RA, marker transfer mutant
Experimental: as §1, §2, §3

RV-HG UL56-L241P/R369S = assay: GFP-RA, marker transfer mutant; settings: for Resistance index (RI) = EC50 indicated RV-HG mutant/EC50 RV-HG wt: RV-HG UL56-L241P/R369S vs RV-HG wt
Experimental: as §1, §2, §3

RV-HG UL56-L241P = assay: GFP-RA, marker transfer mutant
Experimental: as §1, §2, §3

RV-HG UL56-R369M = assay: GFP-RA, marker transfer mutant; settings: for Resistance index (RI) = EC50 indicated RV-HG mutant/EC50 RV-HG wt: RV-HG UL56-R369M vs RV-HG wt
Experimental: as §1, §2, §3

RV-HG UL56-R369S = assay: GFP-RA, marker transfer mutant
Experimental: as §1, §2, §3

RV-HG UL56-V231L = assay: GFP-RA, marker transfer mutant
Experimental: as §1, §2, §3

RV-HG UL56-V236M = assay: GFP-RA, marker transfer mutant
Experimental: as §1, §2, §3

RV-HG-UL56 mutants = assay: GFP-RA, drug susceptibility profile of the virus mutants; settings: fluorescence reduction assays; for BAY 38-4766 and BDCRB with the exception of the strain carrying UL56 R369M
Experimental: as §1, §2
as §3, with “The integrity of the generated BACs was confirmed by restriction enzyme digestion and sequencing.” left out

[1] = Human betaherpesvirus 5, RV-HG UL56-L241P/R369S, fluorescence reduction assay, mean ± SD, read-out: EC50
[2] = Human betaherpesvirus 5, RV-HG UL56-R369M, fluorescence reduction assay, mean ± SD, read-out: EC50
[3] = Human betaherpesvirus 5, RV-HG UL56-R369S, fluorescence reduction assay, mean ± SD, read-out: EC50
[4] = Human betaherpesvirus 5, RV-HG UL56-V231L, fluorescence reduction assay, mean ± SD, read-out: EC50
[5] = Human betaherpesvirus 5, RV-HG (wt-HCMV), fluorescence reduction assay, mean ± SD, read-out: EC50
[6] = Human betaherpesvirus 5, RV-HG UL56-C325Yrev, fluorescence reduction assay, mean ± SD, read-out: EC50
[7] = Human betaherpesvirus 5, RV-HG UL56-C325Y, fluorescence reduction assay, mean ± SD, read-out: EC50
[8] = Human betaherpesvirus 5, RV-HG UL56-L241P, fluorescence reduction assay, mean ± SD, read-out: EC50
[9] = Human betaherpesvirus 5, RV-HG UL56-V236M, fluorescence reduction assay, mean ± SD, read-out: EC50

Structure (SMILES)	EC50 (RV-HG UL56-L241P/R369S; [1]) [nM]	EC50 (RV-HG UL56-R369M; [2]) [nM]	EC50 (RV-HG UL56-R369S; [3]) [nM]	EC50 (RV-HG UL56-V231L; [4]) [nM]	EC50 (RV-HG (wt-HCMV); [5]) [nM]	EC50 (RV-HG UL56-C325Yrev; [6]) [nM]	EC50 (RV-HG UL56-C325Y; [7]) [nM]	EC50 (RV-HG UL56-L241P; [8]) [nM]	EC50 (RV-HG UL56-V236M; [9]) [nM]	sensitivity of the RV-HG-UL56 mutants compared with the parental wild-type virus RV-HG (RV-HG-UL56 mutants)	further results
Nc1nc2c(ncn2COCCO)c(=O)[nH]1 [Aciclovir]	81000 ± 33000	88000 ± 29000	45000 ± 10000	29000 ± 9000							EC50 (RV-HG (wt-HCMV); Human betaherpesvirus 5): 74000 ± 40000 nM; EC50 (RV-HG UL56-C325Yrev; Human betaherpesvirus 5): 55000 ± 18000 nM; EC50 (RV-HG UL56-C325Y; Human betaherpesvirus 5): 49000 ± 16000 nM; EC50 (RV-HG UL56-L241P; Human betaherpesvirus 5): 53000 ± 12000 nM; EC50 (RV-HG UL56-V236M; Human betaherpesvirus 5): 80000 ± 21000 nM
CN(C)c1cccc2c(S(=O)(=O)Nc3ccc(NC(=O)C(C)(C)CO)cc3)cccc12 [BAY384766]				360 ± 80	410 ± 150	580 ± 60	1070 ± 140	340 ± 140	330 ± 80	comparably active	EC50 (RV-HG UL56-L241P/R369S; Human betaherpesvirus 5): 840 ± 310 nM; Resistance index (RI) = EC50 indicated RV-HG mutant/EC50 RV-HG wt (RV-HG UL56-L241P/R369S): 2; EC50 (RV-HG UL56-R369M; Human betaherpesvirus 5): 1750 ± 160 nM; Resistance index (RI) = EC50 indicated RV-HG mutant/EC50 RV-HG wt (RV-HG UL56-R369M): 4; EC50 (RV-HG UL56-R369S; Human betaherpesvirus 5): 680 ± 130 nM
OC[C@H]1O[C@@H](n2c(Br)nc3cc(Cl)c(Cl)cc32)[C@H](O)[C@@H]1O [BDCRB]										comparably active	EC50 (RV-HG (wt-HCMV); RV-HG (wt-HCMV), fluorescence reduction assay, mean ± SD, read-out: EC50): 330 ± 120 nM; EC50 (RV-HG UL56-C325Yrev; RV-HG UL56-C325Yrev, fluorescence reduction assay, mean ± SD, read-out: EC50): 290 ± 40 nM; EC50 (RV-HG UL56-C325Y; RV-HG UL56-C325Y, fluorescence reduction assay, mean ± SD, read-out: EC50): 300 ± 40 nM; EC50 (RV-HG UL56-L241P/R369S; RV-HG UL56-L241P/R369S, fluorescence reduction assay, mean ± SD, read-out: EC50): 300 ± 140 nM; EC50 (RV-HG UL56-L241P; RV-HG UL56-L241P, fluorescence reduction assay, mean ± SD, read-out: EC50): 270 ± 40 nM; EC50 (RV-HG UL56-R369M; RV-HG UL56-R369M, fluorescence reduction assay, mean ± SD, read-out: EC50): 110 ± 50 nM; EC50 (RV-HG UL56-R369S; RV-HG UL56-R369S, fluorescence reduction assay, mean ± SD, read-out: EC50): 190 ± 20 nM; EC50 (RV-HG UL56-V231L; RV-HG UL56-V231L, fluorescence reduction assay, mean ± SD, read-out: EC50): 210 ± 40 nM; EC50 (RV-HG UL56-V236M; RV-HG UL56-V236M, fluorescence reduction assay, mean ± SD, read-out: EC50): 170 ± 30 nM
Nc1ccn(C[C@@H](CO)OCP(=O)(O)O)c(=O)n1 [Cidofovir]	200 ± 110	180 ± 110	160 ± 50	90 ± 20	250 ± 170	320 ± 130	350 ± 50	210 ± 90	260 ± 180	did not differ	
N#CC1(C(=O)Nc2cc(F)cc(NS(=O)(=O)c3ccc(-c4noc(-c5cccc(N)n5)n4)cc3)c2)CC1 [Formula (X), N-{3-[({4-[5-(6-Aminopyridin-2-yl)-1,2,4-oxadiazol-3-yl]phenyl}sulfonyl)amino]-5-fluorophenyl}-1-cyanocyclopropanecarboxamide]	41.6 ± 18	96 ± 18	29.5 ± 13.7	7.1 ± 1.2	14.1 ± 7.9	31.7 ± 2.4	36.7 ± 3.9	18.3 ± 10	8.6 ± 1.3		Resistance index (RI) = EC50 indicated RV-HG mutant/EC50 RV-HG wt (RV-HG UL56-L241P/R369S): 3; Resistance index (RI) = EC50 indicated RV-HG mutant/EC50 RV-HG wt (RV-HG UL56-R369M): 7; Resistance index (RI) = EC50 indicated RV-HG mutant/EC50 RV-HG wt (RV-HG UL56-R369S; RV-HG UL56-R369S vs RV-HG wt): 2
O=C(O)P(=O)(O)O [Foscarnet]	62000 ± 30000	76000 ± 25000	61000 ± 21000		111000 ± 55000	178000 ± 12000	126000 ± 20000	115000 ± 71000	76000 ± 35000	did not differ	EC50 (RV-HG UL56-V231L; Human betaherpesvirus 5): 67000 ± 18000 nM
CC(C)Nc1nc2cc(Cl)c(Cl)cc2n1[C@H]1O[C@@H](CO)[C@H](O)[C@@H]1O [Maribavir]			80 ± 30		180 ± 110	180 ± 70	290 ± 140	140 ± 70			
